Test results taken from patent publication EP4745137A1 (Gluetacs Therapeutics (Shanghai) Co., Ltd., priority 2023, dated 2025).

Legend:
Jurkat = experiment: Tumor cell proliferation inhibition (CellTiter-Meiluncell Luminescent Cell Viability Assay), Jurkat; settings: Homo sapiens, 96 h, read-out: inhibitory activity (IC50, nM) against tumor cells proliferation, Jurkat
Vcap = experiment: Tumor cell proliferation inhibition (CellTiter-Meiluncell Luminescent Cell Viability Assay), Vcap; settings: Homo sapiens, 96 h, read-out: inhibitory activity (IC50, nM) against tumor cells proliferation, Vcap
WEE1 = molecular target: T1, WEE1 (Homo sapiens, UniProt P30291+Q96SW2); experiment: Western-blot assay of substrate protein degradation in hPBMCs, WEE1; format: cell-based; settings: 24 hours of compound treatment, compounds tested at 50 nM and 500 nM (concentration of the table not stated)
T1 construct: endogenous in cells; host or cells: hPBMCs (Milecell Biotechnologies)
T1 sequence (P30291 whole entry): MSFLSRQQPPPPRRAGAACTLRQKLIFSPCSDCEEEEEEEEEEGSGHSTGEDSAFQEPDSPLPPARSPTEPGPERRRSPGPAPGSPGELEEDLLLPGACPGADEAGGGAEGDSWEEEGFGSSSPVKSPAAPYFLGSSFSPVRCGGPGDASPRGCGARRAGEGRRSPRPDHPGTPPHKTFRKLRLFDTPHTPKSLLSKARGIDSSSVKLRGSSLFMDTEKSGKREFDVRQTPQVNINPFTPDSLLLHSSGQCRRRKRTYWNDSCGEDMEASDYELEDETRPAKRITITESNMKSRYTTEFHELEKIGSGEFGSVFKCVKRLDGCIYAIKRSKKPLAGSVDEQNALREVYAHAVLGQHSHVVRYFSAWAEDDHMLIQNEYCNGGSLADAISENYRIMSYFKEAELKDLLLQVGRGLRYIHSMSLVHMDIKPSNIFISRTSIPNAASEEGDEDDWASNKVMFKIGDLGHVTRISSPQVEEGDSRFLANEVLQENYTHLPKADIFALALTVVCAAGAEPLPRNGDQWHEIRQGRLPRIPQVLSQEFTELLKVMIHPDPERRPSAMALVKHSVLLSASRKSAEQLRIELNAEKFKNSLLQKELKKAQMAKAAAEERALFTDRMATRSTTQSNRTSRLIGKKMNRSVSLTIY
T1 sequence (Q96SW2 whole entry): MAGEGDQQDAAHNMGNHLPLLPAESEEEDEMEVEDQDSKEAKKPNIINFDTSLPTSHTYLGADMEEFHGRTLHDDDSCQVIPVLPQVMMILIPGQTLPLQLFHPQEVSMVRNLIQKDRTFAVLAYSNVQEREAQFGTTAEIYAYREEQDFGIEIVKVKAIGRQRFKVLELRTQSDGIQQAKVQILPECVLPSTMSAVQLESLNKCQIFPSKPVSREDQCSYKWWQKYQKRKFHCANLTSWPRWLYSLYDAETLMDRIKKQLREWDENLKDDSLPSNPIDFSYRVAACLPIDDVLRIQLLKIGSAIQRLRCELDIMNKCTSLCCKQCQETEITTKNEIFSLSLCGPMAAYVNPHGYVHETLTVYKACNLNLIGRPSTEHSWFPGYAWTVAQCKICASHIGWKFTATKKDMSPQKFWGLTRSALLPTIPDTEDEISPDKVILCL
T1 sequence (Q16531 whole entry partner): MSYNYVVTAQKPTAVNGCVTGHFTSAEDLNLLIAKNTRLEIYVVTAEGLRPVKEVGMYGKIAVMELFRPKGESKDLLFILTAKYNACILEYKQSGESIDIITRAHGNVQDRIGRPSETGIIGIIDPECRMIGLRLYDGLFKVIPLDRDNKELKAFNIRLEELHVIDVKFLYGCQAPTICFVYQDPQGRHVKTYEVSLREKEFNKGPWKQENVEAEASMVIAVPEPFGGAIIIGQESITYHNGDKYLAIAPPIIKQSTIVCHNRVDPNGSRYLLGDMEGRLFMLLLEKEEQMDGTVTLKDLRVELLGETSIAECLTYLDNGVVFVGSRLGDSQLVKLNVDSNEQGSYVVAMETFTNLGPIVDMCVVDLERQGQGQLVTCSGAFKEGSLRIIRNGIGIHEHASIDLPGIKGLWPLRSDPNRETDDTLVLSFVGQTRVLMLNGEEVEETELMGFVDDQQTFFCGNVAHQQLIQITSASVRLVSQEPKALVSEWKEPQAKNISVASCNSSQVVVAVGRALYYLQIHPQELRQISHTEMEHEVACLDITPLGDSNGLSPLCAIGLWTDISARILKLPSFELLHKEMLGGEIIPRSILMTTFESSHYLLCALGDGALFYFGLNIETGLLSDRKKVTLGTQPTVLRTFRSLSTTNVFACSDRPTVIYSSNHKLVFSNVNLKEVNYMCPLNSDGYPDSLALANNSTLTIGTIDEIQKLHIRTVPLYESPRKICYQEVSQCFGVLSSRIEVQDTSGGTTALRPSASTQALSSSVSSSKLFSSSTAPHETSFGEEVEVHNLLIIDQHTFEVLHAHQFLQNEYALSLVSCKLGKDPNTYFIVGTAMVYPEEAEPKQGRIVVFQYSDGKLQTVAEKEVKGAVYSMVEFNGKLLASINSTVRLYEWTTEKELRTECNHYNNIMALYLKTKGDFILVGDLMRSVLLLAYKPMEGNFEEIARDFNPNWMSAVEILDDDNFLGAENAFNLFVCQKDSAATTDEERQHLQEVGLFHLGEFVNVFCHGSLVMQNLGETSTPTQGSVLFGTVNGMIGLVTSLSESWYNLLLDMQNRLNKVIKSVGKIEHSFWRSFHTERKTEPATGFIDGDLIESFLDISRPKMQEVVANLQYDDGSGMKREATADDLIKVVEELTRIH

IKZF3 = molecular target: T2, IKZF3 (Homo sapiens, UniProt Q96SW2+Q9UKT9); experiment: Western-blot assay of substrate protein degradation in hPBMCs, IKZF3; format: cell-based; settings: 24 hours of compound treatment, compounds tested at 50 nM and 500 nM (concentration of the table not stated)
T2 construct: endogenous in cells; host or cells: hPBMCs (Milecell Biotechnologies)
T2 sequence (Q9UKT9 whole entry): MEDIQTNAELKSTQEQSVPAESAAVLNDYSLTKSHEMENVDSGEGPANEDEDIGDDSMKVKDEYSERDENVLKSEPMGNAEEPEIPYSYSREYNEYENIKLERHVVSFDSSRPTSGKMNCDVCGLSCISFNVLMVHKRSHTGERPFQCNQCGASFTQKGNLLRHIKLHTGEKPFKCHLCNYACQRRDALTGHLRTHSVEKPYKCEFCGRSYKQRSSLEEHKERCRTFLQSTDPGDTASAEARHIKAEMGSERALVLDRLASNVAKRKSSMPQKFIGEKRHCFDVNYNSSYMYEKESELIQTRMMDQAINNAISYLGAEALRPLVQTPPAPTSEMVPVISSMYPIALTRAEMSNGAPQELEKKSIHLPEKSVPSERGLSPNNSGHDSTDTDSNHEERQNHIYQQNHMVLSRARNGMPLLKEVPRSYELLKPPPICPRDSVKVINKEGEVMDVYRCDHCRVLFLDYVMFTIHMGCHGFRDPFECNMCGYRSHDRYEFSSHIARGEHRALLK
T2 sequence (Q96SW2 whole entry): as the sequence (Q96SW2 whole entry) above
T2 sequence (Q16531 whole entry partner): as the sequence (Q16531 whole entry partner) above

IKZF1 = molecular target: T3, IKZF1 (Homo sapiens, UniProt Q13422+Q96SW2); experiment: Western-blot assay of substrate protein degradation in hPBMCs, IKZF1; format: cell-based; settings: 24 hours of compound treatment, compounds tested at 50 nM and 500 nM (concentration of the table not stated)
T3 construct: endogenous in cells; host or cells: hPBMCs (Milecell Biotechnologies)
T3 sequence (Q13422 whole entry): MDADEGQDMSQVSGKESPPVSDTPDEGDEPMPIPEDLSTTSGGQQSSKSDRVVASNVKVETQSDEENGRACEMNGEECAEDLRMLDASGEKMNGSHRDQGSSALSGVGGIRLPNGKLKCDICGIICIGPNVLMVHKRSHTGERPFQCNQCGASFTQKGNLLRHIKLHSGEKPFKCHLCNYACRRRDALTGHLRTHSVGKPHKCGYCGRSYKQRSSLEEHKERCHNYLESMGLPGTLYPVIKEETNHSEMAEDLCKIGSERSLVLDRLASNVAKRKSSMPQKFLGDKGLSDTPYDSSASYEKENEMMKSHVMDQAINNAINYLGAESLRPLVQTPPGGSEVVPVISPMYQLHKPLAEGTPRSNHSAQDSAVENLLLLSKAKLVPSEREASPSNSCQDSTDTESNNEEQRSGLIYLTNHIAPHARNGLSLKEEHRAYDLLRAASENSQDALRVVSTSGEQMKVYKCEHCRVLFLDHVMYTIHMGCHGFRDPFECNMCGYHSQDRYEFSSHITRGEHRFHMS
T3 sequence (Q96SW2 whole entry): as the sequence (Q96SW2 whole entry) above
T3 sequence (Q16531 whole entry partner): as the sequence (Q16531 whole entry partner) above

CAL-62 = experiment: Tumor cell proliferation inhibition (CellTiter-Meiluncell Luminescent Cell Viability Assay), CAL-62; settings: Homo sapiens, CAL-62, 96 h, read-out: inhibitory activity (IC50, nM) against tumor cells proliferation, CAL-62
[1] = molecular target: T4, human Cereblon WT GST-tagged protein (Homo sapiens, UniProt Q96SW2); experiment: CRBN-binding affinity by HTRF (CEREBLON BINDING kit); settings: HTRF inhibitory activity, CEREBLON BINDING kit; read-out: HTRF IC50
T4 construct: purchased CISBIO 64BDCRBNPEH
T4 sequence (Q96SW2 whole entry): as the sequence (Q96SW2 whole entry) above

GSPT1 = molecular target: T5, GSPT1 (Homo sapiens, UniProt P15170+Q96SW2); experiment: Western-blot assay of substrate protein degradation in hPBMCs, GSPT1; format: cell-based; settings: 24 hours of compound treatment, compounds tested at 50 nM and 500 nM (concentration of the table not stated)
T5 construct: endogenous in cells; host or cells: hPBMCs (Milecell Biotechnologies)

CCRF-CEM = experiment: Tumor cell proliferation inhibition (CellTiter-Meiluncell Luminescent Cell Viability Assay), CCRF-CEM; settings: Homo sapiens, 96 h, read-out: inhibitory activity (IC50, nM) against tumor cells proliferation, CCRF-CEM
Method: (§1) The tumor cells used herein were cultured in a cell culture medium listed in table 2 at 37°C in an incubator with 5% CO2. Prior to experimentation, all cell lines used were correctly identified by STR profiling, and tested negative for mycoplasma contamination using a mycoplasma detection kit through routine screenings.
(§2) On the following day, the test compounds of the present disclosure were subjected to serial dilution. […] Subsequently, 0.5 µL of the test compound dilution was transferred into the 96-well plate containing the cells, with each well containing 100 µL of cell culture medium. […] Into the 96-well plate, the diluted test compounds and corresponding detection reagents were added, resulting in final test compound concentrations of 500 nM and 10 nM, respectively. The experimental procedure is described below using the diluted 2 µM test compound as an example.
(§3) After the cells were treated with the compounds of the present disclosure for a specified period (the treatment durations were shown in Table 3), the cell viability assay reagent was added to the culture medium according to the kit's instructions to determine cell viability. […] All controls were treated using the same procedure as the compounds of the present disclosure. The growth inhibition curves for the compounds of the present disclosure were plotted using Prism GraphPad software, and the IC50 values were calculated therefrom.

IKZF2 = molecular target: T6, IKZF2 (Homo sapiens, UniProt Q96SW2+Q9UKS7); experiment: Western-blot assay of substrate protein degradation in hPBMCs, IKZF2; format: cell-based; settings: 24 hours of compound treatment, compounds tested at 50 nM and 500 nM (concentration of the table not stated)
T6 construct: endogenous in cells; host or cells: hPBMCs (Milecell Biotechnologies)
T6 sequence (Q9UKS7 whole entry): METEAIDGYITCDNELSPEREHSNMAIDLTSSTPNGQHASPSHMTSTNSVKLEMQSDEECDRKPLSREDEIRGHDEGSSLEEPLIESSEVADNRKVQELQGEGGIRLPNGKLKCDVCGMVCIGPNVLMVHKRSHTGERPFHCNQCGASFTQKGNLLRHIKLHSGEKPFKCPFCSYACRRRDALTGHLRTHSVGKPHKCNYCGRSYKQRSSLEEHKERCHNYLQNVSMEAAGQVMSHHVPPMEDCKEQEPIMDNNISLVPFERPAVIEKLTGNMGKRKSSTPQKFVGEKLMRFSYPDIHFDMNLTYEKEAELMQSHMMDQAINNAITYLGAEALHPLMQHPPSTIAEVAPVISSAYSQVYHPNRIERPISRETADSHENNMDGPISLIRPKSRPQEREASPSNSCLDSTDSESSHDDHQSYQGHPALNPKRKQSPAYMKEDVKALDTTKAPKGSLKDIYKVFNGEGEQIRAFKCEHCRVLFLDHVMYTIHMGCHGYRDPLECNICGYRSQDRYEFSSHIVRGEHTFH
T6 sequence (Q96SW2 whole entry): as the sequence (Q96SW2 whole entry) above
T6 sequence (Q16531 whole entry partner): as the sequence (Q16531 whole entry partner) above

SW620 = experiment: Tumor cell proliferation inhibition (CellTiter-Meiluncell Luminescent Cell Viability Assay), SW620; settings: Homo sapiens, SW-620, 96 h, read-out: inhibitory activity (IC50, nM) against tumor cells proliferation, SW620
CK1α = molecular target: T7, CK1α (Homo sapiens, UniProt P48729+Q96SW2); experiment: Western-blot assay of substrate protein degradation in hPBMCs, CK1α; format: cell-based; settings: 24 hours of compound treatment, compounds tested at 50 nM and 500 nM (concentration of the table not stated)
T7 construct: endogenous in cells; host or cells: hPBMCs (Milecell Biotechnologies)
T7 sequence (P48729 whole entry): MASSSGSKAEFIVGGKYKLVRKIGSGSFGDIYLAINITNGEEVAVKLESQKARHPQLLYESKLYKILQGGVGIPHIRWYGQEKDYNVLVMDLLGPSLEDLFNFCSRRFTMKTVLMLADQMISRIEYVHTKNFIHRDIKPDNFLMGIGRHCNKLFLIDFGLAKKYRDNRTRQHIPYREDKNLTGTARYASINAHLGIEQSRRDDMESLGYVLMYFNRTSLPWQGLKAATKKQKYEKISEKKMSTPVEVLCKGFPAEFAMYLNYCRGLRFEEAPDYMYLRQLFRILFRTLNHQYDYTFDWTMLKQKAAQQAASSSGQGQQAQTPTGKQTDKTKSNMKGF
T7 sequence (Q96SW2 whole entry): as the sequence (Q96SW2 whole entry) above
T7 sequence (Q16531 whole entry partner): as the sequence (Q16531 whole entry partner) above

[2] = test system: Human acute T lymphocytic leukemia cells (Molt-4); experiment: Tumor cell proliferation inhibition (CellTiter-Meiluncell Luminescent Cell Viability Assay), Molt-4; settings: MOLT-4, 96 h, read-out: inhibitory activity (IC50, nM) against tumor cells proliferation, Molt 4
MM.1R = experiment: Tumor cell proliferation inhibition (CellTiter-Meiluncell Luminescent Cell Viability Assay), MM.1R; settings: Homo sapiens, 96 h, read-out: inhibitory activity (IC50, nM) against tumor cells proliferation, MM.1R
Method: as §1, §2, §3

[3] = test system: Human breast cancer cells (MDA-MB-231); experiment: Tumor cell proliferation inhibition (CellTiter-Meiluncell Luminescent Cell Viability Assay), MDA-MB-231; settings: MDA-MB-231, 96 h, read-out: inhibitory activity (IC50, nM) against tumor cells proliferation, MDA-MB-231
NCI-H1975 = experiment: Tumor cell proliferation inhibition (CellTiter-Meiluncell Luminescent Cell Viability Assay), NCI-H1975; settings: Homo sapiens, NCI-H1975, 96 h, read-out: inhibitory activity (IC50, nM) against tumor cells proliferation, H1975
TMD8 = experiment: Tumor cell proliferation inhibition (CellTiter-Meiluncell Luminescent Cell Viability Assay), TMD8; settings: Homo sapiens, TMD8, 96 h, read-out: inhibitory activity (IC50, nM) against tumor cells proliferation, TMD8

| IC50 (Jurkat) [nM] | IC50 (Vcap) [nM] | IC50 (CAL-62) [nM] | IC50 [1] [nM] | IC50 (CCRF-CEM) [nM] | IC50 (SW620) [nM] | IC50 [2] [nM] | IC50 (MM.1R) [nM] | SMILES | Weel substrate protein remaining % (WEE1) | IKZF3 substrate protein remaining % (IKZF3) | IKZF 1 substrate protein remaining % (IKZF1) | GSPT1 substrate protein remaining % (GSPT1) | IKZF2 substrate protein remaining % (IKZF2) | CK1a substrate protein remaining % (CK1α) | IC50 [3] [nM] | IC50 (NCI-H1975) [nM] | IC50 (TMD8) [nM] |
| --- | --- | --- | --- | --- | --- | --- | --- | --- | --- | --- | --- | --- | --- | --- | --- | --- | --- |
| 10 to 50 | 50 to 100 | 10 to 50 | 500 to 1000 | 10 to 50 | 100 to 500 | 10 to 50 | 10 to 50 | Cc1ccsc1C1CCN(Cc2ccc3c(c2)CN(C2CCC(=O)NC2=O)C3=O)CC1 (centres unmarked) [GT-04502, 3-(5-((4-(3-methylthiophen-2-yl)piperidin-1-yl)methyl)-1-oxoisoindolin-2-yl)piperidine-2,6-dione] | A (0% ≤ substrate protein remaining % ≤ 80%) | A (0% ≤ substrate protein remaining % ≤ 80%) | A (0% ≤ substrate protein remaining % ≤ 80%) | A (0% ≤ substrate protein remaining % ≤ 80%) | A (0% ≤ substrate protein remaining % ≤ 80%) | A (0% ≤ substrate protein remaining % ≤ 80%) |  |  |  |
|  |  |  | 1000 to 1500 |  |  | 5 to 10 |  | O=C1CCC(N2Cc3c(ccc(CN4CCC(c5noc6cc(F)ccc56)CC4)c3F)C2=O)C(=O)N1 (centres unmarked) [GT-04765, 3-(4-fluoro-5-((4-(6-fluorobenzo[d]isoxazol-3-yl)piperidin-1-yl)methyl)-1-oxoisoindolin-2-yl)piperidine-2,6-dione] | A (0% ≤ substrate protein remaining % ≤ 80%) | A (0% ≤ substrate protein remaining % ≤ 80%) | A (0% ≤ substrate protein remaining % ≤ 80%) | A (0% ≤ substrate protein remaining % ≤ 80%) | A (0% ≤ substrate protein remaining % ≤ 80%) | A (0% ≤ substrate protein remaining % ≤ 80%) | 10 to 50 | 50 to 100 | 100 to 500 |

Continued, molecule first:

| SMILES | IC50 (Jurkat) [nM] | IC50 (Vcap) [nM] | IC50 (CAL-62) [nM] | IC50 [1] [nM] | IC50 (CCRF-CEM) [nM] | IC50 (SW620) [nM] | IC50 [2] [nM] | IC50 (MM.1R) [nM] | Weel substrate protein remaining % (WEE1) | IKZF3 substrate protein remaining % (IKZF3) | IKZF 1 substrate protein remaining % (IKZF1) | GSPT1 substrate protein remaining % (GSPT1) | IKZF2 substrate protein remaining % (IKZF2) | CK1a substrate protein remaining % (CK1α) | IC50 [3] [nM] | IC50 (NCI-H1975) [nM] | IC50 (TMD8) [nM] |
| --- | --- | --- | --- | --- | --- | --- | --- | --- | --- | --- | --- | --- | --- | --- | --- | --- | --- |
| O=C1CCC(N2Cc3cc(CN4CCN(c5nsc6ccccc56)CC4)ccc3C2=O)C(=O)N1 (centres unmarked) [GT-04255, 3-(5-((4-(benzo[d]isothiazol-3-yl)piperazin-1-yl)methyl)-1-oxoisoindolin-2-yl)piperidine-2,6-dione] | 100 to 500 | 500 to 1000 | 50 to 100 | 500 to 1000 | 10 to 50 | 100 to 500 |  |  | A (0% ≤ substrate protein remaining % ≤ 80%) | A (0% ≤ substrate protein remaining % ≤ 80%) | A (0% ≤ substrate protein remaining % ≤ 80%) | A (0% ≤ substrate protein remaining % ≤ 80%) | A (0% ≤ substrate protein remaining % ≤ 80%) | A (0% ≤ substrate protein remaining % ≤ 80%) |  |  |  |
| O=C1CCC(N2Cc3cc(CN4CCN(c5cccc(F)n5)CC4)ccc3C2=O)C(=O)N1 (centres unmarked) [GT-04498, 3-(5-((4-(6-fluoropyridin-2-yl)piperazin-1-yl)methyl)-1-oxoisoindolin-2-yl)piperidine-2,6-dione] | 10 to 50 | 100 to 500 | 50 to 100 | 500 to 1000 | 10 to 50 | 500 to 1000 | 10 to 50 | 50 to 100 | A (0% ≤ substrate protein remaining % ≤ 80%) | A (0% ≤ substrate protein remaining % ≤ 80%) | A (0% ≤ substrate protein remaining % ≤ 80%) | A (0% ≤ substrate protein remaining % ≤ 80%) | A (0% ≤ substrate protein remaining % ≤ 80%) | A (0% ≤ substrate protein remaining % ≤ 80%) |  |  |  |
| Cc1cscc1C1CCN(Cc2ccc3c(c2)CN(C2CCC(=O)NC2=O)C3=O)CC1 (centres unmarked) [GT-04504, 3-(5-((4-(4-methylthiophen-3-yl)piperidin-1-yl)methyl)-1-oxoisoindolin-2-yl)piperidine-2,6-dione] | 10 to 50 | 50 to 100 | 10 to 50 | 500 to 1000 | 10 to 50 | 100 to 500 | 10 to 50 | 10 to 50 | A (0% ≤ substrate protein remaining % ≤ 80%) | A (0% ≤ substrate protein remaining % ≤ 80%) | A (0% ≤ substrate protein remaining % ≤ 80%) | A (0% ≤ substrate protein remaining % ≤ 80%) | A (0% ≤ substrate protein remaining % ≤ 80%) | B (80%< substrate protein remaining %≤ 100%) |  |  |  |
| O=C1CCC(N2Cc3cc(CN4C[C@H]5C[C@@H]4CN5c4cccc(Cl)c4Cl)ccc3C2=O)C(=O)N1 (stereo partly drawn) [GT-04724, 3-(5-(((1R,4R)-5-(2,3-dichlorophenyl)-2,5-diazabicyclo[2.2.1]heptan-2-yl)methyl)-1-oxoisoindolin-2-yl)piperidine-2,6-dione] |  |  |  | < 500 |  |  | 5 to 10 |  | A (0% ≤ substrate protein remaining % ≤ 80%) | A (0% ≤ substrate protein remaining % ≤ 80%) | A (0% ≤ substrate protein remaining % ≤ 80%) | A (0% ≤ substrate protein remaining % ≤ 80%) | A (0% ≤ substrate protein remaining % ≤ 80%) | A (0% ≤ substrate protein remaining % ≤ 80%) | 10 to 50 | 50 to 100 | 50 to 100 |
| Cc1ccsc1C1=CCN(Cc2ccc3c(c2F)CN(C2CCC(=O)NC2=O)C3=O)CC1 (centres unmarked) [GT-04729, 3-(4-fluoro-5-((4-(3-methylthiophen-2-yl)-3,6-dihydropyridin-1(2H)-yl)methyl)-1-oxoisoindolin-2-yl)piperidine-2,6-dione] |  |  |  | 500 to 1000 |  |  | 1 to 5 |  | A (0% ≤ substrate protein remaining % ≤ 80%) | A (0% ≤ substrate protein remaining % ≤ 80%) | A (0% ≤ substrate protein remaining % ≤ 80%) | A (0% ≤ substrate protein remaining % ≤ 80%) | A (0% ≤ substrate protein remaining % ≤ 80%) | B (80%< substrate protein remaining %≤ 100%) | 1 to 5 | 10 to 50 | 10 to 50 |
| Cc1ccsc1C1=CCN(Cc2cc(F)c3c(c2)CN(C2CCC(=O)NC2=O)C3=O)CC1 (centres unmarked) [GT-04730, 3-(7-fluoro-5-((4-(3-methylthiophen-2-yl)-3,6-dihydropyridin-1(2H)-yl)methyl)-1-oxoisoindolin-2-yl)piperidine-2,6-dione] |  |  |  | 500 to 1000 |  |  | 1 to 5 |  | A (0% ≤ substrate protein remaining % ≤ 80%) | A (0% ≤ substrate protein remaining % ≤ 80%) | A (0% ≤ substrate protein remaining % ≤ 80%) | A (0% ≤ substrate protein remaining % ≤ 80%) | A (0% ≤ substrate protein remaining % ≤ 80%) | A (0% ≤ substrate protein remaining % ≤ 80%) | 10 to 50 | 10 to 50 | 10 to 50 |
